Laboratory results reported in US20250136577A1, “HETEROCYCLIC DERIVATIVES AS MALT1 INHIBITORS” (C4X Discovery Limited, priority 2022, published 2025).

How the values were obtained:
[1] = biological target: MALT1-GS-Ub (6-His-hMALT-1 residues 339-715 fused to ubiquitin) (Homo sapiens (Human), UniProt Q9UDY8); assay: MALT1 Protease Assay 1 (Assay 1), cleavage of fluorogenic tetrapeptide substrate; type: biochemical; conditions: MALT1-GS-Ub 300-600 nM, Ac-LVSR-AMC 100 μM, 30 min preincubation, 60 min read
In short: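 E. coli-expressed MALT1-GS-Ub (300–600 nM) preincubated 30 min at room temperature with compound (1% DMSO final), then Ac-LVSR-AMC (100 μM) added in 50 mM HEPES pH 7.0, 25 mM KCl, 0.1% CHAPS, 1 mM TCEP. Fluorescence (ex 360/em 460 nm) change over 60 min gave % inhibition versus no-enzyme and no-compound controls; IC50 from 4-parameter fit.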

[2] = biological target: FL hMALT1 enzyme (Homo sapiens (Human), UniProt Q9UDY8); assay: MALT1 Protease Assay 2 (Assay 2), higher sensitivity, cleavage of fluorogenic tetrapeptide substrate; type: biochemical; conditions: FL hMALT1 1-10 nM, Ac-LVSR-AMC 100 μM, 0.7 M sodium citrate, 30 min preincubation, 60 min read
In short: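 After 30 min room-temperature preincubation with compound (1% DMSO), enzyme (1-10 nM) cleaved 100 μM Ac-LVSR-AMC in pH 7.0 HEPES buffer containing 0.7 M sodium citrate, CHAPS and TCEP. Fluorescence (ex 360/em 460 nm) signal was taken as 60 min minus time 0. IC50 came from 4-parameter fits of % inhibition.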

[3] = test system: IL-2 release from stimulated Jurkat cells; assay: Human IL-2 Release Phenotypic Assay (Assay 3); type: cell-based; conditions: Homo sapiens, Jurkat, 48 h, Jurkat cells (clone E6-1), 200 ng/ml PMA + 300 ng/ml ionomycin, IL-2 in supernatant by ELISA
Protocol: Human IL-2 Release Phenotypic Assay (Assay 3)
This assay measured the inhibition by MALT1 inhibitors of the IL-2 release from stimulated Jurkat cells, a human immortalized T lymphocyte cell line. IL-2 production from Jurkat cells is regulated by activation of NFκB signalling, which is in turn regulated by MALT1 protease activity.
Jurkat cells (clone E6-1, ATCC) were cultured in RPMI1640 supplemented with 10% (v/v) FBS and 1% (v/v) penicillin/streptomycin (100× liquid stocks). Cells were seeded in 96-well white tissue culture-treated plates (Perkin Elmer) at 50 000 cells/well and incubated overnight at 37° C., 5% CO2. Test compounds in DMSO at half-log dilutions were added to the cells and incubated for 30 mins. Final DMSO concentration was 0.5%. Cells were then stimulated with 200 ng/ml PMA+300 ng/ml ionomycin and incubated for 48 hours. IL-2 present in the supernatant was then measured by ELISA according to the kit instructions (ELISA MAX Deluxe Set Human IL-2, BioLegend). % inhibition was calculated for each well, using 30 μM of the commercially available MALT1 inhibitor, MLT-748, for 100% inhibition controls and no compound for 0% inhibition controls. IC50 values were calculated using GraphPad Prism using 4-parameter non-linear regression curve fit.

Chain of FL hMALT1 enzyme (Q9UDY8 whole entry): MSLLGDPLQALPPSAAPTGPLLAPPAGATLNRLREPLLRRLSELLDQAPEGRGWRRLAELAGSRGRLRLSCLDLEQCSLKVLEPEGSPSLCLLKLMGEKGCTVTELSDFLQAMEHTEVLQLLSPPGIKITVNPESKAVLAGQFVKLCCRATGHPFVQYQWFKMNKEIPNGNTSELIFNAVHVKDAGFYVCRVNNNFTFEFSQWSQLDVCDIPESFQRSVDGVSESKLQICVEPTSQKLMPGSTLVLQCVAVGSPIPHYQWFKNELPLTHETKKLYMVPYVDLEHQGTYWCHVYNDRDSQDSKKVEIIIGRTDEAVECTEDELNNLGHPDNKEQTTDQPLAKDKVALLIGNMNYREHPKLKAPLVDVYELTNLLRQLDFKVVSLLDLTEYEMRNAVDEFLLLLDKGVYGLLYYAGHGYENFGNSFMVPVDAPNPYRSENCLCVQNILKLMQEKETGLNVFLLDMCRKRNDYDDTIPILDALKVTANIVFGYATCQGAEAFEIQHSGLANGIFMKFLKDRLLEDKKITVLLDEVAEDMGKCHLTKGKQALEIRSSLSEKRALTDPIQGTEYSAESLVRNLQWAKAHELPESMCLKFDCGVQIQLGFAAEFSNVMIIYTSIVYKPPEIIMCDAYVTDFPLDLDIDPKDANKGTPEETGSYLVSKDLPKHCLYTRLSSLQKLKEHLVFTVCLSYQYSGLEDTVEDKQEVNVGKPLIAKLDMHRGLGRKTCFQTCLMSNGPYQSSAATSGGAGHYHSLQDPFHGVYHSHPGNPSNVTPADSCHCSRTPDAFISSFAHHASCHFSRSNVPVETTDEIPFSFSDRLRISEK
Chain of MALT1-GS-Ub (6-His-hMALT-1 residues 339-715 fused to ubiquitin) (Q9UDY8 other isoform, or with tags, fused parts or gaps): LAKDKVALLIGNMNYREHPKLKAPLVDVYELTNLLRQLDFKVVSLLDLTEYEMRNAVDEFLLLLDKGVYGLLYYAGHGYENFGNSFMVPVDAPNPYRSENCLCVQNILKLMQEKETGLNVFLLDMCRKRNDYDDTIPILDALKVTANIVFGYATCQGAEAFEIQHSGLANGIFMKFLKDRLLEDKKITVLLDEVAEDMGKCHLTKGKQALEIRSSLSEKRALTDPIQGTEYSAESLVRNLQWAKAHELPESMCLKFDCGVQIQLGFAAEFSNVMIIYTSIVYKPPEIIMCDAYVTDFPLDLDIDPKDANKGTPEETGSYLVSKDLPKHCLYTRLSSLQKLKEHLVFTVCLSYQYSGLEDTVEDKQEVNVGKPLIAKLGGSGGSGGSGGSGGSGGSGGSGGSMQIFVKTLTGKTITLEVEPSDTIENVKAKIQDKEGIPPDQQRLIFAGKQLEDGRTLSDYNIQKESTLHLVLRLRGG

Row | IC50 [1] | IC50 [2] | IC50 [3] | SMILES
1 | 730 nM | 150 nM | 1100 nM | CC1(C)CN(C(=O)Nc2cnc(-n3nccn3)c(Cl)c2)c2cncc(Br)c2O1 [Example 19, 8-Bromo-N-(5-chloro-6-(2H-1,2,3-triazol-2-yl)pyridin-3-yl)-2,2-dimethyl-2,3-dihydro-4H-pyrido[4,3-b][1,4]oxazine-4-carboxamide]
2 | 850 nM | 190 nM | 1900 nM | CC1(C#N)CN(C(=O)Nc2cnc(-n3nccn3)c(Cl)c2)c2cccc(Br)c2O1 (stereo not drawn) [Example 18, 8-Bromo-N-(5-chloro-6-(2H-1,2,3-triazol-2-yl)pyridin-3-yl)-2-cyano-2-methyl-2,3-dihydro-4H-benzo[b][1,4]oxazine-4-carboxamide]
